Experimental data from the NIST ThermoML archive (doi:10.1016/j.fluid.2016.02.004).
Numbers after ± are expanded uncertainties.

Assay: activity coefficient (dimensionless); of the first substance listed, at infinite dilution; xn = mol fraction of the nth substance listed
Settings: Liquid, Chromatography, x1 = 0

Row | activity coefficient (318.15 K) | activity coefficient (328.15 K) | activity coefficient (338.15 K) | activity coefficient (348.15 K) | activity coefficient (358.15 K) | activity coefficient (368.15 K) | SMILES
1 | 0.65 ± 0.044 | 0.658 ± 0.045 | 0.669 ± 0.045 | 0.677 ± 0.046 | 0.686 ± 0.046 | 0.694 ± 0.047 | CCO [ethanol] + CCCCn1cc[n+](C)c1.N#CN=C=[N-]
2 | 60.1 ± 4.1 | 58.9 ± 4 | 58 ± 4 | 57 ± 3.9 | 56.2 ± 3.8 | 55.5 ± 3.8 | C=CCCCCCC [oct-1-ene] + CCCCn1cc[n+](C)c1.N#CN=C=[N-]
3 | 1.55 ± 0.1 | 1.63 ± 0.11 | 1.71 ± 0.11 | 1.78 ± 0.12 | 1.85 ± 0.12 | 1.93 ± 0.13 | C1CCOC1 [tetrahydrofuran] + CCCCn1cc[n+](C)c1.N#CN=C=[N-]
4 | 2.36 ± 0.16 | 2.47 ± 0.17 | 2.59 ± 0.18 | 2.7 ± 0.18 | 2.81 ± 0.19 | 2.92 ± 0.2 | CCC(=O)OC [methyl propanoate] + CCCCn1cc[n+](C)c1.N#CN=C=[N-]
5 | 207 ± 14 | 193 ± 13 | 181 ± 12 | 171 ± 12 | 162 ± 11 | 153 ± 11 | CCCCCCCCC [nonane] + CCCCn1cc[n+](C)c1.N#CN=C=[N-]
6 | 10.7 ± 0.7 | 11.1 ± 0.8 | 11.5 ± 0.8 | 11.8 ± 0.8 | 12.2 ± 0.8 | 12.5 ± 0.9 | CCC(C)(C)OC [2-methoxy-2-methylbutane] + CCCCn1cc[n+](C)c1.N#CN=C=[N-]
7 | 20.4 ± 1.4 | 20.5 ± 1.4 | 20.5 ± 1.4 | 20.5 ± 1.4 | 20.5 ± 1.4 | 20.6 ± 1.4 | CCCOCCC [dipropyl ether] + CCCCn1cc[n+](C)c1.N#CN=C=[N-]
8 | 53.6 ± 3.7 | 51.7 ± 3.5 | 50.1 ± 3.4 | 48.7 ± 3.3 | 47.4 ± 3.2 | 46 ± 3.1 | CCC(C)(C)C [2,2-dimethylbutane] + CCCCn1cc[n+](C)c1.N#CN=C=[N-]
9 | 0.399 ± 0.034 | 0.408 ± 0.034 | 0.42 ± 0.035 | 0.431 ± 0.035 | 0.442 ± 0.036 | 0.46 ± 0.036 | CO [methanol] + CCCCn1cc[n+](C)c1.N#CN=C=[N-]
10 | 61.6 ± 4.2 | 59.3 ± 4.1 | 57.1 ± 3.9 | 55.2 ± 3.8 | 53.4 ± 3.7 | 51.7 ± 3.5 | CCCCCC [hexane] + CCCCn1cc[n+](C)c1.N#CN=C=[N-]
11 | 41.7 ± 2.9 | 40.1 ± 2.7 | 38.6 ± 2.6 | 37.3 ± 2.6 | 36.1 ± 2.5 | 34.9 ± 2.4 | CCCCC [pentane] + CCCCn1cc[n+](C)c1.N#CN=C=[N-]
12 | 2.15 ± 0.15 | 2.28 ± 0.16 | 2.41 ± 0.16 | 2.53 ± 0.17 | 2.65 ± 0.18 | 2.78 ± 0.19 | C=Cc1ccccc1 [styrene] + CCCCn1cc[n+](C)c1.N#CN=C=[N-]
13 | 25.8 ± 1.8 | 25 ± 1.7 | 24.3 ± 1.7 | 23.7 ± 1.6 | 23.1 ± 1.6 | 22.6 ± 1.5 | C1CCCCC1 [cyclohexane] + CCCCn1cc[n+](C)c1.N#CN=C=[N-]
14 | 7.36 ± 0.5 | 7.57 ± 0.52 | 7.78 ± 0.53 | 7.98 ± 0.54 | 8.15 ± 0.56 | 8.35 ± 0.57 | CCCc1ccccc1 [propylbenzene] + CCCCn1cc[n+](C)c1.N#CN=C=[N-]
15 | 1.11 ± 0.07 | 1.14 ± 0.07 | 1.16 ± 0.07 | 1.19 ± 0.08 | 1.21 ± 0.08 | 1.24 ± 0.08 | CC(C)(C)O [2-methylpropan-2-ol] + CCCCn1cc[n+](C)c1.N#CN=C=[N-]
16 | 26.4 ± 1.8 | 25.9 ± 1.8 | 25.5 ± 1.7 | 25.1 ± 1.7 | 24.7 ± 1.7 | 24.4 ± 1.7 | C=CCCCC [hex-1-ene] + CCCCn1cc[n+](C)c1.N#CN=C=[N-]

Row | activity coefficient (318.15 K) | activity coefficient (328.15 K) | activity coefficient (338.15 K) | activity coefficient (348.15 K) | activity coefficient (358.15 K) | activity coefficient (368.15 K) | SMILES
17 | 3.7 ± 0.3 | 3.94 ± 0.27 | 4.16 ± 0.28 | 4.38 ± 0.3 | 4.6 ± 0.3 | 4.84 ± 0.33 | C#CCCC [1-pentyne] + CCCCn1cc[n+](C)c1.N#CN=C=[N-]
18 | 17.4 ± 1.2 | 16.9 ± 1.2 | 16.3 ± 1.1 | 15.9 ± 1.1 | 15.5 ± 1.1 | 15.1 ± 1 | C1CCCC1 [cyclopentane] + CCCCn1cc[n+](C)c1.N#CN=C=[N-]
19 | 20.6 ± 1.4 | 20.9 ± 1.4 | 21.2 ± 1.4 | 21.5 ± 1.5 | 21.8 ± 1.5 | 22 ± 1.5 | CC(C)OC(C)C [diisopropyl ether] + CCCCn1cc[n+](C)c1.N#CN=C=[N-]
20 | 111 ± 8 | 105 ± 7 | 101 ± 7 | 96.5 ± 6.6 | 92.8 ± 6.4 | 89.2 ± 6.1 | CC(C)CC(C)(C)C [2,2,4-trimethylpentane] + CCCCn1cc[n+](C)c1.N#CN=C=[N-]
21 | 1.08 ± 0.07 | 1.08 ± 0.07 | 1.09 ± 0.07 | 1.09 ± 0.07 | 1.09 ± 0.07 | 1.09 ± 0.07 | CC(C)CO [2-methyl-1-propanol] + CCCCn1cc[n+](C)c1.N#CN=C=[N-]
22 | 0.781 ± 0.051 | 0.813 ± 0.053 | 0.844 ± 0.054 | 0.876 ± 0.056 | 0.904 ± 0.057 | 0.934 ± 0.059 | CC#N [acetonitrile] + CCCCn1cc[n+](C)c1.N#CN=C=[N-]
23 | 7.3 ± 0.5 | 7.52 ± 0.51 | 7.72 ± 0.53 | 7.93 ± 0.54 | 8.11 ± 0.55 | 8.3 ± 0.6 | CC(C)c1ccccc1 [isopropylbenzene] + CCCCn1cc[n+](C)c1.N#CN=C=[N-]
24 | 1.61 ± 0.11 | 1.71 ± 0.11 | 1.81 ± 0.12 | 1.9 ± 0.13 | 1.99 ± 0.14 | 2.09 ± 0.14 | COC(C)=O [methyl ethanoate] + CCCCn1cc[n+](C)c1.N#CN=C=[N-]
25 | 0.921 ± 0.058 | 0.93 ± 0.059 | 0.94 ± 0.059 | 0.948 ± 0.06 | 0.956 ± 0.06 | 0.963 ± 0.061 | CC(C)O [propan-2-ol] + CCCCn1cc[n+](C)c1.N#CN=C=[N-]
26 | 39 ± 2.7 | 38.5 ± 2.6 | 38.1 ± 2.6 | 37.7 ± 2.6 | 37.3 ± 2.6 | 37 ± 2.5 | C=CCCCCC [1-heptene] + CCCCn1cc[n+](C)c1.N#CN=C=[N-]
27 | 314 ± 22 | 285 ± 20 | 260 ± 18 | 239 ± 16 | 221 ± 15 | 205 ± 14 | CCCCCCCCCC [decane] + CCCCn1cc[n+](C)c1.N#CN=C=[N-]
28 | 1.06 ± 0.07 | 1.13 ± 0.07 | 1.21 ± 0.08 | 1.28 ± 0.08 | 1.36 ± 0.09 | 1.43 ± 0.09 | C1COCCO1 [1,4-dioxane] + CCCCn1cc[n+](C)c1.N#CN=C=[N-]
29 | 3.46 ± 0.24 | 3.61 ± 0.25 | 3.75 ± 0.26 | 3.9 ± 0.27 | 4.03 ± 0.27 | 4.17 ± 0.28 | CCCC(=O)OC [methyl butanoate] + CCCCn1cc[n+](C)c1.N#CN=C=[N-]
30 | 1.87 ± 0.13 | 1.95 ± 0.13 | 2.03 ± 0.14 | 2.11 ± 0.14 | 2.19 ± 0.15 | 2.28 ± 0.16 | c1ccccc1 [benzene] + CCCCn1cc[n+](C)c1.N#CN=C=[N-]
31 | 1.61 ± 0.11 | 1.67 ± 0.11 | 1.74 ± 0.12 | 1.8 ± 0.12 | 1.87 ± 0.13 | 1.93 ± 0.13 | CCCC=O [butanal] + CCCCn1cc[n+](C)c1.N#CN=C=[N-]
32 | 1.1 ± 0.07 | 1.11 ± 0.07 | 1.12 ± 0.07 | 1.13 ± 0.07 | 1.14 ± 0.07 | 1.15 ± 0.07 | CCCCO [butan-1-ol] + CCCCn1cc[n+](C)c1.N#CN=C=[N-]

Row | SMILES | activity coefficient (318.15 K) | activity coefficient (328.15 K) | activity coefficient (338.15 K) | activity coefficient (348.15 K) | activity coefficient (358.15 K) | activity coefficient (368.15 K)
33 | Cc1ccccc1C [1,2-dimethylbenzene] + CCCCn1cc[n+](C)c1.N#CN=C=[N-] | 3.82 ± 0.26 | 3.97 ± 0.27 | 4.12 ± 0.28 | 4.27 ± 0.29 | 4.42 ± 0.3 | 4.57 ± 0.31
34 | c1ccncc1 [pyridine] + CCCCn1cc[n+](C)c1.N#CN=C=[N-] | 0.845 ± 0.054 | 0.89 ± 0.06 | 0.94 ± 0.059 | 0.985 ± 0.062 | 1.03 ± 0.06 | 1.08 ± 0.07
35 | CCOCC [diethyl ether] + CCCCn1cc[n+](C)c1.N#CN=C=[N-] | 6.88 ± 0.47 | 7.11 ± 0.48 | 7.32 ± 0.5 | 7.53 ± 0.51 | 7.74 ± 0.53 | 7.95 ± 0.54
36 | Cc1ccccc1 [toluene] + CCCCn1cc[n+](C)c1.N#CN=C=[N-] | 2.89 ± 0.2 | 3.01 ± 0.2 | 3.15 ± 0.21 | 3.27 ± 0.22 | 3.4 ± 0.2 | 3.54 ± 0.24
37 | Cc1cccc(C)c1 [1,3-dimethylbenzene] + CCCCn1cc[n+](C)c1.N#CN=C=[N-] | 4.65 ± 0.32 | 4.82 ± 0.33 | 5.03 ± 0.34 | 5.19 ± 0.35 | 5.38 ± 0.37 | 5.56 ± 0.38
